Test results from US6737383B1, “Herbicidal oxadiazolidines” (priority 1999, dated 2004).

Legend:
sandbur = experiment: Test D sandbur; type: in vivo, Cenchrus echinatus; conditions: Postemergence, 0 to 100 scale
lambsquarters = experiment: Test C postemergence lambsquarters; type: in vivo, Chenopodium album; conditions: 0 to 100 scale, 0 no effect, 100 complete control
Procedure: (§1) Compounds evaluated in this test were formulated in a non-phytotoxic solvent mixture which included a surfactant and applied to plants that were grown for various periods of time before treatment (postemergence application). A mixture of sandy loam soil and greenhouse potting mix in a 60:40 ratio was used for the postemergence test.
(§2) Plantings of these crops and weed species were adjusted to produce plants of appropriate size for the postemergence test. All plant species were grown using normal greenhouse practices. Crop and weed species include arrowleaf sida (Sida rhombifolia), barnyardgrass (Echinochloa crus-galli), cocklebur (Xanthium strumarium), common ragweed (Ambrosia elatior), corn (Zea mays), cotton (Gossypium hirsutum), eastern black nightshade (Solanum ptycanthum), fall panicum (Panicum dichotomiflorum), field bindweed (Convolvulus arvensis), giant foxtail (Setaria faberii), hairy beggarticks (Bidens pilosa), ivyleaf morningglory (Ipomoea hederacea), johnsongrass (Sorghum halepense), ladysthumb smartweed (Polygonum persicaria), lambsquarters (Chenopodium album), large crabgrass (Digitaria sanguinalis), purple nutsedge (Cyperus rotundus), redroot pigweed (Amaranthus retroflexus), soybean (Glycine max), surinam grass (Brachiaria decumbens), velvetleaf (Abutilon theophrasti) and wild poinsettia (Euphorbia heterophylla).
(§3) Treated plants and untreated controls were maintained in a greenhouse for approximately 14, to 21 days, after which all treated plants were compared to untreated controls and visually evaluated. Plant response ratings, summarized in Table C, were based upon a 0 to 100 scale where 0 was no effect and 100 was complete control. A dash response (−) means no test result.

wild poinsettia = experiment: Test C postemergence wild poinsettia; type: in vivo, Euphorbia heterophylla; conditions: 0 to 100 scale, 0 no effect, 100 complete control
Procedure: as §1, §2, §3

[1] = tested on: Abutilon theophrasti (ABUTH); experiment: Test F preemergence, alone and in mixture with rimsulfuron, ABUTH; type: in vivo; conditions: 21 days after treatment, 0-100 scale
Procedure: Abutilon theophrasti (ABUTH), Chenopodium album (CHEAL), Amaranthus rudis (AMATA), Setaria faberii (SETFA), Panicum dichotomiflorum (PANDI), and Digitaria sanguinalis (DIGSA) were grown from seed in pots of an artificial potting mixture in a greenhouse. Compounds of the present invention were applied at 70 and 105 g ai/ha preemergence. Rimsulfuron was applied at 8.8 and 17.5 g ai/ha. Mixtures of the compounds of the present invention and rimsulfuron were also applied.
Following application, the plants were maintained by watering as needed. A fertilizer solution of Peter's 20-20-20 (10 pounds/5 gallons of water) plus Sprint 330, a Iron Chelate micronutrient, (113.5 grams/5 gallons of water) was injected into the water with an Anderson fertilizer injection system to provide approximately 219 ppm of nitrogen with each watering. Artificial lighting was used to supplement natural light to produce a 14 hour photoperiod and: an additional one hour light period was used between 1:00 am to 2:00 am for a night interruption. Greenhouse temperatures were targeted for 27° C. in the day and 21° C. at night. At 21 days after treatment, all plants were evaluated for injury as compared to control plants that were sprayed only with non-phytotoxic solvent.
Colby's equation was used to calculate the expected additive herbicidal effect of the mixtures of Compound 21 and the mixture partners listed above. […]

cocklebur = experiment: Test C postemergence cocklebur; type: in vivo, Xanthium strumarium; conditions: 0 to 100 scale, 0 no effect, 100 complete control
In short: (§4)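 Visual injury scored 0-100 (100 = complete control) versus untreated plants roughly 14 to 21 days after treatment. Plants were grown to suitable size in 60:40 sandy loam and potting mix, then treated postemergence with surfactant-containing solvent formulations.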

deadnettle = experiment: Test E deadnettle; type: in vivo, Lamium amplexicaule; conditions: Preemergence; for Deadnettle plant response rating (0 to 100 scale): Rate 250 g/ha
littleseed canarygrass = experiment: Test E littleseed canarygrass; type: in vivo, Phalaris minor; conditions: Postemergence; for Plant response rating, LS canarygrass: 0 to 100 scale; for LS canarygrass plant response rating: Rate 250 g/ha, 0 to 100 scale where 0 is no effect and 100 is complete control
In short: (§5)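 Greenhouse test: for postemergence, foliar application at 1- to 4-leaf stage; compound in non-phytotoxic solvent with surfactant. Rating is visual, relative to untreated controls, about 21 to 28 days after treatment.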

green foxtail [2] = experiment: Test E green foxtail; type: in vivo, Setaria viridis; conditions: Postemergence; for Plant response rating, Green foxtail: 0 to 100 scale; for Green foxtail plant response rating: Rate 250 g/ha, 0 to 100 scale where 0 is no effect and 100 is complete control
In short: as §5

corn = experiment: Test C postemergence corn; type: in vivo, Zea mays; conditions: 0 to 100 scale, 0 no effect, 100 complete control
In short: as §4

wild oat = experiment: Test E wild oat; type: in vivo, Avena fatua; conditions: Postemergence; for Plant response rating, Wild oat: 0 to 100 scale
In short: as §5

Green foxtail [3] = experiment: Test D green foxtail; type: in vivo; conditions: Rate 250 g/ha; Postemergence; 0 to 100 scale
sourgrass = experiment: Test D sourgrass; type: in vivo, Trichachne insularis; conditions: Preemergence, 0 to 100 scale
In short: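 Visual injury ratings, 0 = no injury to 100 = complete control, taken 14 to 21 days after treatment. Test chemicals were in a surfactant-containing non-phytotoxic solvent; preemergence treatments went onto the sandy loam surface of seeded greenhouse pots within one day of sowing.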

[4] = Rate 16 g/ha, 0 no injury, 100 complete control
[5] = Rate 32 g/ha, 0 no injury, 100 complete control
[6] = Rate 64 g/ha, 0 no injury, 100 complete control
[7] = Rate 125 g/ha, 0 no injury, 100 complete control
[8] = Rate 125 g/ha, 0 is no effect, 100 is complete control
[9] = Rate 500 g/ha, 0 is no effect, 100 is complete control

Row | SMILES | Plant response rating, Sandbur (sandbur; [4]) | Plant response rating, Sandbur (sandbur; [5]) | Sandbur plant response rating (sandbur; [6]) | Plant response rating, Sandbur (sandbur; Rate 250 g/ha) | Plant response rating Lambsquarters (lambsquarters; Rate 140 g/ha) | Plant response rating Lambsquarters (lambsquarters; Rate 280 g/ha) | Plant response rating Lambsquarters (lambsquarters; Rate 560 g/ha) | Plant response rating Lambsquarters (lambsquarters; Rate 1120 g/ha) | Plant response rating Wild poinsettia (wild poinsettia; Rate 140 g/ha) | Plant response rating Wild poinsettia (wild poinsettia; Rate 280 g/ha) | Plant response rating Wild poinsettia (wild poinsettia; Rate 560 g/ha) | Plant response rating Wild poinsettia (wild poinsettia; Rate 1120 g/ha) | Plant response rating, Cocklebur (cocklebur; Rate 140 g/ha) | Plant response rating, Cocklebur (cocklebur; Rate 280 g/ha) | Plant response rating, Cocklebur (cocklebur; Rate 560 g/ha) | Plant response rating, Cocklebur (cocklebur; Rate 1120 g/ha) | Deadnettle plant response rating (0 to 100 scale) (deadnettle) | LS canarygrass plant response rating (littleseed canarygrass) | Green foxtail plant response rating (green foxtail [2]) | Plant response rating, Corn (corn; Rate 280 g/ha) | further results
1 | CC(C)N(C(=O)n1oc(=O)n(C2CC2)c1=O)c1ccc(F)cc1 [Compound 242] | 20 | 30 | 50 | 100 | 0 | 0 | 0 | 0 | 0 | 0 | 0 | 85 | 0 | 0 | 0 | 20 | 70 | 15 | 60 | 0 | Sandbur plant response rating (sandbur; [7]): 100; ABUTH Observed ([1]; Alone: Cmpd. rate 70, Rimsulfuron 0): 50%; ABUTH Observed ([1]; Alone: Cmpd. rate 105, Rimsulfuron 0): 70%; Plant response rating, Deadnettle (deadnettle; Rate 500 g/ha, 0 to 100 scale where 0 is no effect and 100 is complete control): 100; Plant response rating, LS canarygrass (littleseed canarygrass; Rate 62 g/ha): 65; Plant response rating, LS canarygrass (littleseed canarygrass; [8]): 10; Plant response rating, LS canarygrass (littleseed canarygrass; [9]): 50; Plant response rating, Green foxtail (green foxtail [2]; Rate 62 g/ha): 60; Plant response rating, Green foxtail (green foxtail [2]; [8]): 30; Plant response rating, Green foxtail (green foxtail [2]; [9]): 70; Plant response rating, Corn (corn; Rate 140 g/ha): 0; Plant response rating, Corn (corn; Rate 560 g/ha): 0; Plant response rating, Corn (corn; Rate 1120 g/ha): 20; Plant response rating, Wild oat (wild oat; [8]): 0; Plant response rating, Wild oat (wild oat; [9]): 20; Plant response rating, Green foxtail (Green foxtail [3]): 100
2 | CC(C)N(C(=O)n1oc(=O)n(C)c1=O)c1ccc(F)cc1 [Compound 138] | – | – | – | – | 0 | 0 | 10 | 20 | 0 | 0 | 0 | 70 | 0 | 0 | 0 | 0 | 70 | 10 | 70 | 20 | Plant response rating Sourgrass (sourgrass; [6]): 98; Plant response rating Sourgrass (sourgrass; [7]): 100; Plant response rating Sourgrass (sourgrass; Rate 500 g/ha): 100; Plant response rating, Deadnettle (deadnettle; Rate 125 g/ha, 0 to 100 scale (0 no effect, 100 complete control)): 65; Plant response rating, LS canarygrass (littleseed canarygrass; Rate 125 g/ha): 10; Plant response rating, Green foxtail (green foxtail [2]; Rate 125 g/ha): 15; Plant response rating, Corn (corn; Rate 560 g/ha): 50; Plant response rating, Corn (corn; Rate 1120 g/ha): 60; Plant response rating, Wild oat (wild oat; Rate 125 g/ha): 0; Wild oat plant response rating (wild oat; Rate 250 g/ha, 0 to 100 scale where 0 is no effect and 100 is complete control): 0
3 | CC(C)N(C(=O)n1oc(=O)n(C2CCCCCC2)c1=O)c1ccc(F)cc1F [Compound 342] | 0 | 0 | 0 | 0 | – | – | – | – | – | – | – | – | – | – | – | – | – | – | – | – | Plant response rating, Green foxtail (Green foxtail [3]): 100
4 | COc1ccccc1-n1c(=O)on(C(=O)N(c2ccc(F)cc2)C(C)C)c1=O [Compound 30] | – | – | – | – | – | – | – | – | – | – | – | – | – | – | – | – | – | – | – | – | Plant response rating Sourgrass (sourgrass; [6]): 100
